The source of these data is patent US20250353821A1, “BENZENE SULFONAMIDE THIAZOLE COMPOUNDS AND THEIR USE FOR THE TREATMENT OF CANCERS” (INSERM (INSTITUT NATIONAL DE LA SANTÉ ET DE LA RECHERCHE …, priority 2021, published 2025).

SMILES strings stand for the structures.

Holding throughout (type): cell-based
The test system of series [1] is normal human melanocytes (MHN). The series is described as follows: In vitro toxicity test on normal human melanocytes, 48 h. The settings on record: concentration 10 times higher than its IC50, FIG. 2.
Series [2] concerns A375 melanoma cells. The series is described as follows: Cell viability by cell counting, trypan blue exclusion method. The settings on record: Homo sapiens, A-375, 48 h, percentage of cells alive relative to negative control DMSO (100%).
Series [3] deals with Normal human fibroblasts (FHN). Briefly: In vitro toxicity test on normal human fibroblasts, 48 h. The settings on record: concentration 10 times higher than its IC50, FIG. 2.

A word on the viability: it is a per cent measure of how many cells are alive, often set against a control. Low values mean more harm to the cells, high ones less harm to the cells. Consider `CC(=O)NCCCCCC(=O)Nc1nc(-c2cccc(NS(=O)(=O)c3cccc4c(N(C)C)cccc34)c2)cs1` [PB628, 6-acetamido-N-(4-(3-((5-(dimethylamino)naphthalene)-1-sulfonamido)phenyl)thiazol-2-yl)hexanamide], for which the “toxicity in normal human melanocytes” value in series [1] is “no toxicity”. In series [2] (5 μM), this compound registered a viability at 5 µM of 25.2 ± 6.1%. Also, the viability at 10 µM in series [2] (10 μM) was 12.5 ± 6.7%. Also, in series [3], the “toxicity in normal human fibroblasts” value is “no toxicity”.
